The values below come from patent US12673950B2, “Spiros and related analogs for inhibiting YAP/TAZ-TEAD” (THE KATHOLIEKE UNIVERSITEIT LEUVEN, priority 2021, dated 2026).

What all share (assay type): cell-based
Experiment [1] has as its system YAP/TAZ-TEAD transcription. As to the kind of experiment: Reporter gene assay for measuring the inhibition of YAP/TAZ-TEAD transcription (TEAD-responsive element luciferase reporter in Hek293T cells). To be noted: Hek293T cells transfected with TEAD-responsive luciferase reporter, 24 hours incubation. The procedure: Hek293T cells are cultured in DMEM supplemented with 10% fetal bovine serum, Sodium pyruvate, Sodium bicarbonate, L-glutamine. The cells are harvested and transiently transfected with TEAD-responsive element luciferase reporter. Transfected cells are plated in 384-wells plate containing pre-diluted compounds. After 24 hours incubation at 37° C./5% CO2, assay plates were cooled down to RT and levelled to an equal volume per well, prior to the addition of 25 uL luciferase substrate SteadyLite (Perkin Elmer)/well. The plate was shaken for 10 min at 600 rpm, centrifuged for 1 min at 500 rpm and measured with an Envision reader (PerkinElmer). The amount of relative light units produced by the TEAD reporter is used to calculated percent of inhibition.
The percent of reporter inhibition was calculated in the presence of a positive control inhibitor (100% inhibition) versus a condition with the presence of the vehicle basal activity of the reporter (0% inhibition). The ability of a test compound to inhibit this activity was determined as: Percentage inhibition=[1−((RLU determined in the presence of vehicle−RLU determined for sample with test compound present) divided by (RLU determined in the presence of vehicle−RLU determined for sample with positive control inhibitor))]*100
The activities of example compounds tested are depicted in Table 3. The activity ranges A, B and C refer to IC50 values in the reporter gene assay as follows: “A”: IC50<1 μM; “B”: 1 μM≤IC50≤20 μM and “C”: IC50>20 μM; NT=not tested.
For orientation: A reporter such as luciferase makes a cellular process visible.

Another experiment concerns NCI-H226. As to the kind of experiment: Mesothelioma cell line proliferation assay (ATPlite), NCI-H226. To be noted: Homo sapiens, 144 h; NCI-H226 mesothelioma cells, 6 days incubation, ATPlite cell viability. As to the method: (§1) Mesothelioma cell lines, NCI-H226 and NCI-H2052 (all sourced from the ATCC cell culture collection) are plated in 96-well plates (Corning® 96 Well White Polystyrene Microplate clear flat bottom, white polystyrene (TC-Treated)), at 1500 cells/well in full medium (RPMI 1640 ATCC modification with L-glutamine, HEPES, Phenol Red, Sodium Pyruvate, High glucose, Low sodium bicarbonate and 10% fetal bovine serum). Cells are incubated overnight at 37° C. in an incubator with 5% CO2. Then compounds, dissolved in DMSO, are added in dose-response. Cells are incubated with compound dilutions for another 6 days at 37° C. in an incubator with 5% CO2. Cell viability is quantitated using the ATPlite kit (Perkin-Elmer) and the luminescence is read-out using an Envision instrument (Perkin-Elmer). The amount of relative light units produced using the ATPlite kit is used to calculated percent of inhibition.
(§2) The activities of some example compounds are depicted in Table 4. The activity ranges A, B and C refer to EC50 values in the mesothelioma cell line proliferation assay as described as follows: “A”: EC50<1 μM; “B”: 1 μM≤EC50≤10 μM and “C”: EC50>10 μM; NT: not tested.

A further experiment deals with NCI-H2052. As to the kind of experiment: Mesothelioma cell line proliferation assay (ATPlite), NCI-H2052. To be noted: Homo sapiens, 144 h; NCI-H2052 mesothelioma cells, 6 days incubation, ATPlite cell viability. The procedure:
as §1, §2
On the technique in general: In ATP-based viability assays light output follows the ATP content of the culture.

In general, IC50 refers to the point on the concentration scale where inhibition reaches its midpoint. A low value points to higher potency. As to `CCC(=O)N1CC2(Cc3ccccc3N(c3ccc(C(F)(F)F)cc3)C2)C1` [Cpd. No. 007, 1-(1′-(4-(trifluoromethyl)phenyl)-1′,4′-dihydro-2′H-spiro[azetidine-3,3′-quinolin]-1-yl)propan-1-one], the IC50 in experiment [1] (Homo sapiens, HEK-293T, 24 h) was > 20 µM.

For orientation: EC50 means the concentration giving half of the maximal effect. Low values mean higher potency in that assay, high ones lower potency in that assay. Take `C=CC(=O)N1CCC2(CC1)Cc1ccccc1N(c1ccc(C(F)(F)F)cc1)C2` [Cpd. No. 002, 1-(1′-(4-(trifluoromethyl)phenyl)-1′,4′-dihydro-2′H-spiro[piperidine-4,3′-quinolin]-1-yl)prop-2-en-1-one]: the results for the EC50 with NCI-H226 and in the experiment with NCI-H2052 were < 1 µM and 1 to 10 µM, respectively. The IC50 in experiment [1] (Homo sapiens, HEK-293T, 24 h) was < 1 µM.

In the case of `C=CC(=O)N1CCC2(Cc3cc(C(F)(F)F)ccc3N(c3ccc(C(F)(F)F)cc3)C2)C1` (stereo not shown) [Cpd. No. 009, 1-[6-(trifluoromethyl)-1-[4-(trifluoromethyl)phenyl]spiro[2,4-dihydroquinoline-3,3′-pyrrolidine]-1′-yl]prop-2-en-1-one], the IC50 in experiment [1] (Homo sapiens, HEK-293T, 24 h) was < 1 µM.

On to `C=CC(=O)N1CCC2(Cc3ccccc3N(c3ccc(C(F)(F)F)cc3)C2)C1` (single isomer, unassigned) [Cpd. No. 003-En2, (R)- or (S)-1-(1′-(4-(trifluoromethyl)phenyl)-1′,4′-dihydro-2′H-spiro[pyrrolidine-3,3′-quinolin]-1-yl)prop-2-en-1-one], for which the concentration giving a half-maximal response (EC50) with NCI-H226 and with NCI-H2052 was < 1 µM in each case. Besides, the IC50 in experiment [1] (Homo sapiens, HEK-293T, 24 h) is < 1 µM.

Turning to `C=CC(=O)N1CCC2(Cc3ccccc3N(c3ccc(C(F)(F)F)cc3)C2)C1` (racemic) [Cpd. No. 003, 1-(1′-(4-(trifluoromethyl)phenyl)-1′,4′-dihydro-2′H-spiro[pyrrolidine-3,3′-quinolin]-1-yl)prop-2-en-1-one], the EC50 with NCI-H226 and in the experiment with NCI-H2052 was < 1 µM in each case. Besides, in experiment [1] (Homo sapiens, HEK-293T, 24 h), the IC50 was < 1 µM.

Compound `CC(NC(=O)N1CCC2(Cc3ccccc3N(c3ccc(C(F)(F)F)cc3)C2)C1)c1ccccn1` (stereo not shown) [Cpd. No. 008, N-[1-(2-pyridyl)ethyl]-1-[4-(trifluoromethyl)phenyl]spiro[2,4-dihydroquinoline-3,3′-pyrrolidine]-1′-carboxamide] showed an IC50 in experiment [1] (Homo sapiens, HEK-293T, 24 h) of 1 to 20 µM.

For `C=CC(=O)N1CCC2(Cc3ccccc3N(c3ccc(C(F)(F)F)cc3)C2)C1` (single isomer, unassigned) [Cpd. No. 003-En1, (R)- or (S)-1-(1′-(4-(trifluoromethyl)phenyl)-1′,4′-dihydro-2′H-spiro[pyrrolidine-3,3′-quinolin]-1-yl)prop-2-en-1-one], the IC50 in experiment [1] was < 1 µM.

Regarding `CS(=O)(=O)N1CCC2(Cc3ccccc3N(c3ccc(C(F)(F)F)cc3)C2)C1` (single isomer, unassigned) [Cpd. No. 005-En2, (R)- or (S)-1-(methylsulfonyl)-1′-(4-(trifluoromethyl)phenyl)-1′,4′-dihydro-2′H-spiro[pyrrolidine-3,3′-quinoline]], the EC50 in the experiment with NCI-H226 and in the experiment on NCI-H2052 was < 1 µM each time. In addition, in experiment [1], the IC50 was < 1 µM.

With `CC(=O)N1CCC2(Cc3cc(C(F)(F)F)ccc3N(c3ccc(C(F)(F)F)cc3)C2)C1` (stereo not shown) [Cpd. No. 010, 1-[6-(trifluoromethyl)-1-[4-(trifluoromethyl)phenyl]spiro[2,4-dihydroquinoline-3,3′-pyrrolidine]-1′-yl]ethanone], the IC50 in experiment [1] (Homo sapiens, HEK-293T, 24 h) is > 20 µM.

For the compound `CS(=O)(=O)N1CCC2(Cc3ccccc3N(c3ccc(C(F)(F)F)cc3)C2)C1` (single isomer, unassigned) [Cpd. No. 005-En1, (R)- or (S)-1-(methylsulfonyl)-1′-(4-(trifluoromethyl)phenyl)-1′,4′-dihydro-2′H-spiro[pyrrolidine-3,3′-quinoline]], the IC50 in experiment [1] was > 20 µM.

In the case of `C=CC(=O)N1CC2(Cc3ccccc3N(c3ccc(C(F)(F)F)cc3)C2)C1` [Cpd. No. 006, 1-(1′-(4-(trifluoromethyl)phenyl)-1′,4′-dihydro-2′H-spiro[azetidine-3,3′-quinolin]-1-yl)prop-2-en-1-one], the EC50 in the experiment on NCI-H226 and with NCI-H2052 was < 1 µM throughout. In addition, the IC50 in experiment [1] (Homo sapiens, HEK-293T, 24 h) was < 1 µM.

Consider `C=CC(=O)N1CCC2(CC1)Cc1ccccc1N(c1ccc(C(F)(F)F)cc1)C2=O` [Cpd. No. 001, 1-acryloyl-1′-(4-(trifluoromethyl)phenyl)-1′,4′-dihydro-2′H-spiro[piperidine-4,3′-quinolin]-2′-one], for which, in experiment [1] (Homo sapiens, HEK-293T, 24 h), the IC50 was < 1 µM.

Consider `CCC(=O)N1CCC2(Cc3ccccc3N(c3ccc(C(F)(F)F)cc3)C2)C1` (single isomer, unassigned) [Cpd. No. 004-En1, (R)- or (S)-1-(1′-(4-(trifluoromethyl)phenyl)-1′,4′-dihydro-2′H-spiro[pyrrolidine-3,3′-quinolin]-1-yl)propan-1-one], for which the IC50 in experiment [1] is > 20 µM.

Take `CS(=O)(=O)N1CCC2(Cc3cc(C(F)(F)F)ccc3N(c3ccc(C(F)(F)F)cc3)C2)C1` (stereo not shown) [Cpd. No. 011, 1′-methylsulfonyl-6-(trifluoromethyl)-1-[4-(trifluoromethyl)phenyl]spiro[2,4-dihydroquinoline-3,3′-pyrrolidine]]: the IC50 in experiment [1] (Homo sapiens, HEK-293T, 24 h) was < 1 µM.

Compound `CCC(=O)N1CCC2(Cc3ccccc3N(c3ccc(C(F)(F)F)cc3)C2)C1` (single isomer, unassigned) [Cpd. No. 004-En2, (R)- or (S)-1-(1′-(4-(trifluoromethyl)phenyl)-1′,4′-dihydro-2′H-spiro[pyrrolidine-3,3′-quinolin]-1-yl)propan-1-one] showed an IC50 in experiment [1] of 1 to 20 µM.
